Measured values published in patent US20030008843A1, “Bulking agents as satiety agents” (priority 2001, published 2003).

Columns and labels:
[1] = after oral preloading of 25 g xylitol with water, cited from earlier work
[2] = ad libitum test lunch energy intake 1.5 hours after yoghurt pre-load, days 1 and 10 (Example 1); type: in vivo, human; conditions: for difference in average test meal energy intake versus control (significance): paired comparison; for difference in average test meal energy intake versus control (significance) / combined (pre-load and test lunch) energy intake versus control (significance): p<0.05; for combined (pre-load and test lunch) energy intake versus control (significance): post-hoc paired comparisons
Excerpt: Eight female and seven male subjects with mean ages ranging from about 29.5 to 30.7 yr. were used in the study. They were lean (having BMI of 21.6 Kg/m^2-23.8 Kg/m^2), and they exercised between 2-3 times per week. There were four experimental conditions that all subjects completed in a counterbalanced order with each condition separated by a one-week washout period. During each experimental condition, subjects were provided with either control or test yoghurts to consume as part of their normal diet for 10 consecutive days. The four experimental conditions differed according to the type of carbohydrate added to the yoghurt consumed: [table] Volunteers were required to consume one portion (200 g) of yoghurt on each of the 10 days. Therefore, energy content of the yoghurts varied between the four yoghurt formulations while weight was held constant. Subjects consumed the yoghurts for 10 consecutive days. However, days 2-9 were free-living during which time they were not required to visit the human appetite research unit (HARU), where the studies described hereinbelow were performed. On days 1 and 10 (test days), subjects were required to visit the HARU for a fixed breakfast at 8:30 a.m. and an ad libitum test lunch. The energy and nutrient content of the breakfast, was fixed for each of the conditions. Immediately after breakfast subjects were free to leave the unit and instructed to consume the yoghurt at 11:00am and not to consume any other food or drink during the breakfast-lunch interval. At 12:30 subjects returned to the unit for the ad libitum test lunch and were instructed to eat until a comfortable level of fullness. The food was weighed immediately before and after the test lunch to determine the energy and nutrient of food consumed. The test lunch was mixed composition (31% Fat, 53% Carbohydrate and 16% Protein) and consisted of sandwiches, […] fruit. Immediately after the test lunch subjects were provided with their yoghurts for days 2-9 and were instructed to return at 8:30 on day 10. On days 1 and 10, volunteers were provided with an ad libitum lunch 1.5 hours following consumption of the yoghurt pre-load.

[3] = after ingestion of 25 g xylitol; control 58±5 min; cited from earlier work
[4] = humans; cited from earlier work

Compound	reduction in calories versus control [1] [%]	food intake ([1]; control 920±60 Kcal) [kcal]	Suppression (%) in energy intake compared with the control yoghurt, All ([2]; all subjects, 25 g/day in 200 g yoghurt, test lunch 1.5 h after pre-load) [%]	Suppression (%) in combined preload plus test meal energy intake compared with the control yoghurt, All ([2]; all subjects, energy content of pre-load accounted for) [%]	Suppression (%) in combined preload plus test meal energy intake compared with the control yoghurt, Females ([2]; females, energy content of pre-load accounted for) [%]	Suppression (%) in energy intake compared with the control yoghurt, Females ([2]; females, test lunch 1.5 h after pre-load) [%]	Suppression (%) in combined preload plus test meal energy intake compared with the control yoghurt, Males ([2]; males, energy content of pre-load accounted for) [%]	Suppression (%) in energy intake compared with the control yoghurt, Males ([2]; males, test lunch 1.5 h after pre-load) [%]	difference in average test meal energy intake versus control (significance) [2]	difference in average test meal energy intake versus control (significance) ([2]; listed as xylitol)	combined (pre-load and test lunch) energy intake versus control (significance) [2]	combined (pre-load and test lunch) energy intake versus control (significance) ([2]; listed as xylitol)	gastric emptying T-1/2 [3] [min]	reduction of human absorption of fat [4] [%]
OC[C@@H](O)[C@H](O)[C@@H](O)CO [Xyl, Xylitol]	25	690 ± 45	11.9	14.8	11.6	6.4	16.1	15.3	statistically significant	significant reduction	significantly lower	significant calorie reduction	91 ± 7	–
CCCCCCCCCCC[C@@H](C[C@@H]1OC(=O)[C@H]1CCCCCC)OC(=O)[C@H](CC(C)C)NC=O [tetrahydrolipostatin]	–	–	–	–	–	–	–	–	–	–	–	–	–	30
